Patent US20100216791A1, “PYRIDINYLQUINAZOLINAMINE DERIVATIVES AND THEIR USE AS B-RAF INHIBITORS” (ASTRAZENECA, priority 2006, published 2010)

The compounds below were run against Mutant B-Raf (V600E) enzyme (MT B-Raf) (Homo sapiens, UniProt P15056, V600E) (assay: biochemical). Conditions: not given.
Mutant B-Raf (V600E) enzyme (MT B-Raf), sequence (P15056 whole entry V600E): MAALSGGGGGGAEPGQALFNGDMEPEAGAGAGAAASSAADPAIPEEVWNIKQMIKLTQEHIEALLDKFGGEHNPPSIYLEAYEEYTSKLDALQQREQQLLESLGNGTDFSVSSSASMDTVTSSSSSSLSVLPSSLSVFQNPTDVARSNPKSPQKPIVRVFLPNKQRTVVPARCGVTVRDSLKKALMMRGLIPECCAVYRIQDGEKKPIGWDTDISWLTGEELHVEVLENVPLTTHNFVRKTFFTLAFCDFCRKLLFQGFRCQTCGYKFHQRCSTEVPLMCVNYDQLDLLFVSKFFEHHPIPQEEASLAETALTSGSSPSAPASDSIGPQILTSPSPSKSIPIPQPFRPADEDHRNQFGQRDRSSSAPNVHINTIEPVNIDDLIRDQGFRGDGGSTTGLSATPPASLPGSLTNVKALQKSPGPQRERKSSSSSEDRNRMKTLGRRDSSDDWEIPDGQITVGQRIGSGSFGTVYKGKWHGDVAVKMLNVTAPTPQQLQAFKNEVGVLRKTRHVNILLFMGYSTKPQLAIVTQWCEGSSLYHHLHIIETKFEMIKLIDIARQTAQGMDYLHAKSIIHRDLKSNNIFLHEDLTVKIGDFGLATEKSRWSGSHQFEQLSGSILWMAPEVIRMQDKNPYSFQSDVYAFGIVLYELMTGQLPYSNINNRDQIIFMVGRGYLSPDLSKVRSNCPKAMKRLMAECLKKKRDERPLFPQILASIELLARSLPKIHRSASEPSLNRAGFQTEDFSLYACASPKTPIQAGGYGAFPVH

| Compound | IC50 |
| --- | --- |
| Cc1cc(Nc2ncc3cc(-c4ccncc4)ccc3n2)ccc1C(=O)N(C)C [Example 50] | 150 nM |

Same assay, conditions: B-Raf Alpha screen comparable to the described assay; phosphorylation of biotinylated HIS-MEK-AVI; results may be an average of two or more results

| IC50 | Compound |
| --- | --- |
| 36 nM | CC(c1ccc(Nc2ncc3cc(-c4ccncc4)ccc3n2)cc1)N(C)C (single isomer, unassigned) [Example 139] |
| 21 nM | CC(c1ccc(Nc2ncc3cc(-c4ccncc4)ccc3n2)cc1)N(C)C (single isomer, unassigned) [Example 140] |
| 34 nM | CCCNC(C)c1ccc(Nc2ncc3cc(-c4ccncc4)ccc3n2)cc1 (single isomer, unassigned) [Example 141] |
| 12 nM | CCCNC(C)c1ccc(Nc2ncc3cc(-c4ccncc4)ccc3n2)cc1 (single isomer, unassigned) [Example 142] |
| 730 nM | CC(C)(C#N)c1ccc(Nc2ncc3cc(-c4ccncc4)ccc3n2)cc1 [Example 2, 2-Methyl-2-{4-[(6-pyridin-4-ylquinazolin-2-yl)amino]phenyl}propanenitrile] |
| 140 nM | O=C(NCCO)c1ccc(Nc2ncc3cc(-c4ccncc4)ccc3n2)cc1 [Example 7, N-(2-Hydroxyethyl)-4-[(6-pyridin-4-ylquinazolin-2-yl)amino]benzamide] |
| 230 nM | COC(=O)c1ccc(Nc2ncc3cc(-c4ccncc4)ccc3n2)cc1 [Example 9, Methyl 4-[(6-pyridin-4-ylquinazolin-2-yl)amino]benzoate] |
| 79 nM | CNC(=O)c1ccc(Nc2ncc3cc(-c4ccncc4)ccc3n2)cc1 [Example 17, N-Methyl-4-[(6-pyridin-4-ylquinazolin-2-yl)amino]benzamide] |
| 140 nM | CC(C)NCCNC(=O)c1ccc(Nc2ncc3cc(-c4ccncc4)ccc3n2)cc1 [Example 28, N-[2-(Isopropylamino)ethyl]-4-[(6-pyridin-4-ylquinazolin-2-yl)amino]benzamide] |
| 83 nM | CN(C)C(=O)c1ccc(Nc2ncc3cc(-c4ccncc4)ccc3n2)cc1 [Example 30, N,N-Dimethyl-4-[(6-pyridin-4-ylquinazolin-2-yl)amino]benzamide] |
| 82 nM | CN(C)CCCNC(=O)c1ccc(Nc2ncc3cc(-c4ccncc4)ccc3n2)cc1 [Example 31, N-[3-(Dimethylamino)propyl]-4-[(6-pyridin-4-ylquinazolin-2-yl)amino]benzamide] |
| 130 nM | COCC(C)NC(=O)c1ccc(Nc2ncc3cc(-c4ccncc4)ccc3n2)cc1 (stereo not drawn) [Example 32, N-(2-Methoxy-1-methylethyl)-4-[(6-pyridin-4-ylquinazolin-2-yl)amino]benzamide] |
| 270 nM | CC(O)CCNC(=O)c1ccc(Nc2ncc3cc(-c4ccncc4)ccc3n2)cc1 (stereo not drawn) [Example 34, N-(3-Hydroxybutyl)-4-[(6-pyridin-4-ylquinazolin-2-yl)amino]benzamide] |
| 160 nM | CN(C)CCOc1ccc(Nc2ncc3cc(-c4ccncc4)ccc3n2)cc1 [Example 40, N-{4-[2-(Dimethylamino)ethoxy]phenyl}-6-pyridin-4-ylquinazolin-2-amine] |
| 460 nM | COc1ccc(Nc2ncc3cc(-c4ccncc4)ccc3n2)cc1 [Example 41, N-(4-Methoxyphenyl)-6-pyridin-4-ylquinazolin-2-amine] |
| 230 nM | c1cc(-c2ccc3nc(Nc4ccc(OCCN5CCCCC5)cc4)ncc3c2)ccn1 [Example 42, N-[4-(2-Piperidin-1-ylethoxy)phenyl]-6-pyridin-4-ylquinazolin-2-amine] |
| 160 nM | c1cc(-c2ccc3nc(Nc4ccc(OCCN5CCOCC5)cc4)ncc3c2)ccn1 [Example 43, N-[4-(2-Morpholin-4-ylethoxy)phenyl]-6-pyridin-4-ylquinazolin-2-amine] |
| 120 nM | OCCc1ccc(Nc2ncc3cc(-c4ccncc4)ccc3n2)cc1 [Example 52, 2-{4-[(6-Pyridin-4-ylquinazolin-2-yl)amino]phenyl}ethanol] |
| 210 nM | CC(=O)c1ccc(Nc2ncc3cc(-c4ccncc4)ccc3n2)cc1 [Example 53, 1-{4-[(6-Pyridin-4-ylquinazolin-2-yl)amino]phenyl}ethanone] |
| 120 nM | O=C1CCCN1c1ccc(Nc2ncc3cc(-c4ccncc4)ccc3n2)cc1 [Example 54, 1-{4-[(6-Pyridin-4-ylquinazolin-2-yl)amino]phenyl}pyrrolidin-2-one] |

The next lines start with the compound.

| Compound | IC50 |
| --- | --- |
| O=C(NCCN1CCOCC1)c1ccc(Nc2ncc3cc(-c4ccncc4)ccc3n2)cc1 [Example 5, N-(2-Morpholin-4-ylethyl)-4-[(6-pyridin-4-ylquinazolin-2-yl)amino]benzamide] | 180 nM |
| O=C(NCCOCCO)c1ccc(Nc2ncc3cc(-c4ccncc4)ccc3n2)cc1 [Example 8, N-[2-(2-Hydroxyethoxy)ethyl]-4-[(6-pyridin-4-ylquinazolin-2-yl)amino]benzamide] | 120 nM |
| COCCNC(=O)c1ccc(Nc2ncc3cc(-c4ccncc4)ccc3n2)cc1Cl [Example 10, 2-Chloro-N-(2-methoxyethyl)-4-[(6-pyridin-4-ylquinazolin-2-yl)amino]benzamide] | 350 nM |
| CN(CCCNC(=O)c1ccc(Nc2ncc3cc(-c4ccncc4)ccc3n2)cc1)C(=O)OC(C)(C)C [Example 13, tert-Butyl methyl[3-({4-[(6-pyridin-4-ylquinazolin-2-yl)amino]benzoyl}amino)propyl]carbamate] | 310 nM |
| O=C(NCC1CCCO1)c1ccc(Nc2ncc3cc(-c4ccncc4)ccc3n2)cc1 (stereo not drawn) [Example 14, 4-[(6-Pyridin-4-ylquinazolin-2-yl)amino]-N-(tetrahydrofuran-2-ylmethyl)benzamide] | 210 nM |
| CC1(C)OCC(CNC(=O)c2ccc(Nc3ncc4cc(-c5ccncc5)ccc4n3)cc2)O1 (stereo not drawn) [Example 16, N-[(2,2-Dimethyl-1,3-dioxolan-4-yl)methyl]-4-[(6-pyridin-4-ylquinazolin-2-yl)amino]benzamide] | 200 nM |
| COCCNC(=O)c1ccc(Nc2ncc3cc(-c4ccncc4)ccc3n2)nc1 [Example 18, N-(2-Methoxyethyl)-6-[(6-pyridin-4-ylquinazolin-2-yl)amino]nicotinamide] | 1300 nM |
| CC(C)(C)OC(=O)N1CCCC1CNC(=O)c1ccc(Nc2ncc3cc(-c4ccncc4)ccc3n2)cc1 (stereo not drawn) [Example 19, tert-Butyl 2-[({4-[(6-pyridin-4-ylquinazolin-2-yl)amino]benzoyl}amino)methyl]pyrrolidine-1-carboxylate] | 490 nM |
| O=C(NCCc1ccccn1)c1ccc(Nc2ncc3cc(-c4ccncc4)ccc3n2)cc1 [Example 20, N-(2-Pyridin-2-ylethyl)-4-[(6-pyridin-4-ylquinazolin-2-yl)amino]benzamide] | 250 nM |
| O=C(NCCCN1CCCC1=O)c1ccc(Nc2ncc3cc(-c4ccncc4)ccc3n2)cc1 [Example 21, N-[3-(2-Oxopyrrolidin-1-yl)propyl]-4-[(6-pyridin-4-ylquinazolin-2-yl)amino]benzamide] | 200 nM |
| O=C(NCCCN1CCOCC1)c1ccc(Nc2ncc3cc(-c4ccncc4)ccc3n2)cc1 [Example 22, N-(3-Morpholin-4-ylpropyl)-4-[(6-pyridin-4-ylquinazolin-2-yl)amino]benzamide] | 91 nM |
| CC(C)(C)OC(=O)N1CCC(CNC(=O)c2ccc(Nc3ncc4cc(-c5ccncc5)ccc4n3)cc2)CC1 [Example 24, tert-Butyl 4-[({4-[(6-pyridin-4-ylquinazolin-2-yl)amino]benzoyl}amino)methyl]piperidine-1-carboxylate] | 520 nM |
| CC(C)(C)OC(=O)NCCNC(=O)c1ccc(Nc2ncc3cc(-c4ccncc4)ccc3n2)cc1 [Example 25, tert-Butyl [2-({4-[(6-pyridin-4-ylquinazolin-2-yl)amino]benzoyl}amino)ethyl]carbamate] | 390 nM |
| CC(C)(C)OC(=O)NCCCNC(=O)c1ccc(Nc2ncc3cc(-c4ccncc4)ccc3n2)cc1 [Example 26, tert-Butyl [3-({4-[(6-pyridin-4-ylquinazolin-2-yl)amino]benzoyl}amino)propyl]carbamate] | 550 nM |
| O=C(NCCN1CCCCC1)c1ccc(Nc2ncc3cc(-c4ccncc4)ccc3n2)cc1 [Example 27, N-(2-Piperidin-1-ylethyl)-4-[(6-pyridin-4-ylquinazolin-2-yl)amino]benzamide] | 87 nM |
| Cc1cc(Nc2ncc3cc(-c4ccncc4)ccc3n2)ccc1C(=O)NCCN1CCOCC1 [Example 33, 2-Methyl-N-(2-morpholin-4-ylethyl)-4-[(6-pyridin-4-ylquinazolin-2-yl)amino]benzamide] | 160 nM |
| O=C(NCCCn1ccnc1)c1ccc(Nc2ncc3cc(-c4ccncc4)ccc3n2)cc1 [Example 35, N-[3-(1H-Imidazol-1-yl)propyl]-4-[(6-pyridin-4-ylquinazolin-2-yl)amino]benzamide] | 110 nM |
| Cc1cc(Nc2ncc3cc(-c4ccncc4)ccc3n2)ccc1C(=O)NCCN(C)C [Example 36, N-[2-(Dimethylamino)ethyl]-2-methyl-4-[(6-pyridin-4-ylquinazolin-2-yl)amino]benzamide] | 95 nM |
| COCCNC(=O)c1ccnc(Nc2ncc3cc(-c4ccncc4)ccc3n2)c1 [Example 37, N-(2-Methoxyethyl)-2-[(6-pyridin-4-ylquinazolin-2-yl)amino]isonicotinamide] | 1700 nM |
| COCCNC(=O)c1cccc(Nc2ncc3cc(-c4ccncc4)ccc3n2)n1 [Example 38, N-(2-Methoxyethyl)-6-[(6-pyridin-4-ylquinazolin-2-yl)amino]pyridine-2-carboxamide] | 1500 nM |
| c1cc(-c2ccc3nc(Nc4ccc5c(c4)OCO5)ncc3c2)ccn1 [Example 44, N-1,3-Benzodioxol-5-yl-6-pyridin-4-ylquinazolin-2-amine] | 420 nM |
| c1cc(-c2ccc3nc(Nc4ccc5c(c4)OCCO5)ncc3c2)ccn1 [Example 45, N-(2,3-Dihydro-1,4-benzodioxin-6-yl)-6-pyridin-4-ylquinazolin-2-amine] | 300 nM |
| COCCNC(=O)c1ccc(Nc2ncc3cc(-c4ccncc4F)ccc3n2)cc1 [Example 48, 4-{[6-(3-Fluoropyridin-4-yl)quinazolin-2-yl]amino}-N-(2-methoxyethyl)benzamide] | 270 nM |
| Cc1cc(Nc2ncc3cc(-c4ccncc4)ccc3n2)ccc1C(=O)NCCN1CCCCC1 [Example 51, 2-Methyl-N-(2-(piperidin-1-yl)ethyl)-4-(6-(pyridin-4-yl)quinazolin-2-ylamino)benzamide] | 130 nM |
